Experimental data taken from US20240308987A1, “SMALL MOLECULE INHIBITOR AGAINST NASOPHARYNGEAL CARCINOMA, PREPARATION METHOD AND APPLICATION THEREOF” (SHENZHEN BAY LABORATORY, priority 2021, published 2024).

System: C666-1 cells
Assay: C666-1 Cell Viability Assay (Resazurin cytotoxicity test)
Type: cell-based
Details: Homo sapiens, C6661, EB virus-positive C666-1 cells, 72 hours treatment, 100-0.78 micromole/L, read-out: Inhibitory Rate
Description: In order to evaluate the inhibitory effect of the small molecular compound of the present disclosure on EBNA1 at the cellular level, a cytotoxicity test was performed.
As mentioned in the Background of the present disclosure, nasopharyngeal carcinoma is a kind of disease highly associated with latent infection of EB virus. EB virus in latent state only expresses limited proteins to maintain its genome replication, among which EBNA1 protein is an essential functional protein. Studies have confirmed that inhibition of EBNA1 can reduce the proliferation of the corresponding nasopharyngeal carcinoma cells or kill them. Therefore, EB virus-positive nasopharyngeal carcinoma tumor cells (C666-1 cells) are selected for test to verify the effect of the small molecular compound of the present disclosure.
During testing, 100 microliters of different cell lines were inoculated onto a transparent 96-well plate, and 5×10^3 cells were inoculated in each well for C666-1 cells. After the cells were cultured in an incubator under […] at 37° C. for 24 hours, 10 microliters of compound with a concentration ranging from 1 mmol/L to 7.8 micromol/L were added to each well (8 points, double dilution, the final concentration was 100-0.78 micromole/L), and treated in the incubator under carbon dioxide at 37° C. for 72 hours. Cell viability was assessed using the redox indicator Resazurin. After addition of 10 microliters of 600 micromole/liter Resazurin to each well and incubation at 37° C. for 3 hours. Using a Tecan microplate reader, the fluorescence signals were detected at an […]. A software was used to fit the inhibition curve and calculate half-maximal effect concentration (EC50). The selectivity of compound activity was assessed by comparing the EC50 values of EB virus-positive and EB virus-negative cell lines.

With `O=C(Cc1ccc(OC2CN(c3cccc(C(=O)NO)c3)C2)cc1)Nc1cccnc1` [Example 43b, N-hydroxy-3-(3-(4-(2-oxo-2-(pyridin-3-ylamino)ethyl)phenoxy)azetidin-1-yl) benzamide] the EC50 was < 1 µM.

`COC(=O)c1cccc(N2CC(Oc3ccc(N(C)C(=O)Nc4cccc(C#N)c4)cc3)C2)c1-n1cccc1` [Example 7, methyl 3-(3-(4-(3-(3-cyanophenyl)-1-methylureido)phenoxy)azetidin-1-yl)-2-(1H-pyrrol-1-yl) benzoate] was tested, and the EC50 was 10 to 50 µM.

`O=C(O)c1cccc(N2CC(Oc3ccc(CNc4cccnc4)cc3)C2)c1-c1ccccc1` [Example 39a, 6-(3-(4-((pyridin-3-ylamino)methyl)phenoxy)azetidin-1-yl)-[1,1′-biphenyl]-2-carboxylic acid] was tested, and the EC50 was > 50 µM.

For `O=C(Cc1ccc(C#Cc2cccc(C(=O)O)c2-c2ccccc2)cc1)Nc1cccnc1` [Example 60a, 6-((4-(2-oxo-2-(pyridin-3-ylamino)ethyl)phenyl)ethynyl)-[1,1′-biphenyl]-2-carboxylic acid], the EC50 was < 1 µM.

For `COC(=O)c1cccc(N2CC(Oc3ccc(COc4cnccc4C)cc3)C2)c1-n1cccc1` [Example 2, methyl 3-(3-(4-((4-methylpyridin-3-yloxy)methyl)phenoxy)azetidin-1-yl)-2-(1H-pyrrol-1-yl) benzoate], the EC50 was > 50 µM.

For `O=C(Cc1cccnc1)Nc1ccc(OC2CN(c3cccc(C(=O)O)c3-n3cccc3)C2)cc1` [Example 51a, 3-(3-(4-(2-(pyridin-3-yl)acetamido)phenoxy)azetidin-1-yl)-2-(1H-pyrrol-1-yl) benzoic acid], the EC50 was < 1 µM.

In the case of `COC(=O)c1cccc(N2CC(Oc3ccc(COc4cnccn4)cc3)C2)c1-n1cccc1` [Example 13, methyl 3-(3-(4-((pyrazin-2-yloxy)methyl)phenoxy)azetidin-1-yl)-2-(1H-pyrrol-1-yl) benzoate], the EC50 is reported as > 50 µM.

In the case of `Cc1ccncc1OCc1ccc(OC2CN(c3cccc(C(=O)O)c3-n3cccc3)C2)cc1` [Example 2a, 3-(3-(4-((4-methylpyridin-3-yloxy)methyl)phenoxy)azetidin-1-yl)-2-(1H-pyrrol-1-yl) benzoic acid], the EC50 is reported as > 50 µM.

For `COC(=O)c1cccc(N2CC(Oc3ccc(Oc4cccnc4)cc3)C2)c1-n1cccc1` [Example 25, methyl 3-(3-(4-(pyridin-3-yloxy)phenoxy)azetidin-1-yl)-2-(1H-pyrrol-1-yl) benzoate], the EC50 was > 50 µM.

`COC(=O)c1cccc(N2CC(Oc3ccc(/C=C/c4cccnc4)cc3)C2)c1-n1cccc1` [Example 28, methyl (E)-3-(3-(4-(2-(pyridin-3-yl)vinyl)phenoxy)azetidin-1-yl)-2-(1H-pyrrol-1-yl) benzoate] was tested, and the EC50 was > 50 µM.

`O=C(Cc1ccc(OC2CN(c3ccccc3)C2)cc1)Nc1cccnc1` [Example 43c, 2-(4-((1-phenylazetidin-3-yl)oxy)phenyl)-N-(pyridin-3-yl) acetamide] gave an EC50 of 10 to 50 µM.

`COC(=O)c1cccc(C#Cc2ccc(NC(=O)Nc3cccnc3)cc2)c1-c1cccc(O)c1` [Example 63, methyl 3′-hydroxyl-6-((4-(3-(pyridin-3-yl)ureido)phenyl)ethynyl)-[1,1′-biphenyl]-2-carboxylate] was tested, and the EC50 was < 1 µM.

For `COC(=O)c1cccc(N2CC(Oc3ccc(CCc4cccnc4)cc3)C2)c1-n1cccc1` [Example 29, methyl 3-(3-(4-(2-(pyridin-3-yl)ethyl)phenoxy)azetidin-1-yl)-2-(1H-pyrrol-1-yl) benzoate], the EC50 was > 50 µM.

With `O=C(NO)c1cccc(N2CC(Oc3ccc(CNc4cccnc4)cc3)C2)c1-c1cccc(Cl)c1` [Example 38b, 3′-chloro-N-hydroxy-6-(3-(4-((pyridin-3-ylamino)methyl)phenoxy)azetidin-1-yl)-[1,1′-biphenyl]-2-carboxamide] the EC50 was < 1 µM.

`COC(=O)c1cccc(N2CC(Oc3ccc(OCc4cccnc4)cc3)C2)c1-n1cccc1` [Example 24, methyl 3-(3-(4-(pyridin-3-ylmethoxy)phenoxy)azetidin-1-yl)-2-(1H-pyrrol-1-yl) benzoate] gave an EC50 of 1 to 10 µM.

In the case of `COC(=O)c1cccc(N2CC(Oc3ccc(NC(=O)Cc4cccnc4)cc3)C2)c1` [Example 49, methyl 3-(3-(4-(2-(pyridin-3-yl)acetamido)phenoxy)azetidin-1-yl) benzoate], the EC50 is reported as 1 to 10 µM.

`O=C(Cc1cccnc1)Nc1ccc(OC2CN(c3cccc(C(=O)O)c3Cl)C2)cc1` [Example 55a, 2-chloro-3-(3-(4-(2-(pyridin-3-yl)acetamido)phenoxy)azetidin-1-yl) benzoic acid] was tested, and the EC50 was 10 to 50 µM.

`COC(=O)c1cccc(N2CC(Oc3cccc(COc4cccnc4)c3)C2)c1-n1cccc1` [Example 21, methyl 3-(3-(3-((pyridin-3-yloxy)methyl)phenoxy)azetidin-1-yl)-2-(1H-pyrrol-1-yl) benzoate] gave an EC50 of 10 to 50 µM.

Compound `O=C(O)c1cccc(N2CC(Oc3ccc(COc4cncnc4)cc3)C2)c1-n1cccc1` [Example 14a, 3-(3-(4-((pyrimidin-5-yloxy)methyl)phenoxy)azetidin-1-yl)-2-(1H-pyrrol-1-yl) benzoic acid] has an EC50 of 1 to 10 µM.

In the case of `CNC(=O)c1cccc(N2CC(Oc3ccc(CC(=O)Nc4cccnc4)cc3)C2)c1-c1ccccc1` [Example 40c, N-methyl-6-(3-(4-(2-oxo-2-(pyridin-3-ylamino)ethyl)phenoxy)azetidin-1-yl)-[1,1′-biphenyl]-2-carboxamide], the EC50 is reported as 1 to 10 µM.

In the case of `O=C(NO)c1cccc(N2CC(Oc3ccc(OCc4cccnc4)cc3)C2)c1-n1cccc1` [Example 24b, N-hydroxy-3-(3-(4-(pyridin-3-ylmethoxy)phenoxy)azetidin-1-yl)-2-(1H-pyrrol-1-yl) benzamide], the EC50 is reported as < 1 µM.

For `O=C(O)c1cccc(N2CC(Oc3ccc(COc4cccs4)cc3)C2)c1-n1cccc1` [Example 30a, 2-(1H-pyrrol-1-yl)-3-(3-(4-((thiophen-2-yloxy)methyl)phenoxy)azetidin-1-yl) benzoic acid], the EC50 was > 50 µM.

`COC(=O)c1cccc(N2CC(Oc3ccc(COCc4cccnc4)cc3)C2)c1-n1cccc1` [Example 27, methyl 3-(3-(4-((pyridin-3-ylmethoxy)methyl)phenoxy)azetidin-1-yl)-2-(1H-pyrrol-1-yl) benzoate] gave an EC50 of 10 to 50 µM.

For `O=C(O)c1cccc(N2CC(Oc3ccc(COc4cnccn4)cc3)C2)c1-n1cccc1` [Example 13a, 3-(3-(4-((pyrazin-2-yloxy)methyl)phenoxy)azetidin-1-yl)-2-(1H-pyrrol-1-yl) benzoic acid], the EC50 was > 50 µM.

Compound `O=C(Nc1ccc(OC2CN(c3cccc(C(=O)O)c3)C2)cc1)Nc1cccnc1` [Example 50a, 3-(3-(4-(3-(pyridin-3-yl)ureido)phenoxy)azetidin-1-yl) benzoic acid] has an EC50 of 1 to 10 µM.

For `COC(=O)c1cccc(N2CC(Oc3ccc(CC(=O)Nc4cccnc4)cc3)C2)c1-c1ccccc1` [Example 40, methyl 6-(3-(4-(2-oxo-2-(pyridin-3-ylamino)ethyl)phenoxy)azetidin-1-yl)-[1,1′-biphenyl]-2-carboxylate], the EC50 was < 1 µM.

`COC(=O)c1cccc(N2CC(Oc3ccc(NC(=O)Nc4cccnc4)cc3)C2)c1` [Example 50, methyl 3-(3-(4-(3-(pyridin-3-yl)ureido)phenoxy)azetidin-1-yl) benzoate] gave an EC50 of 1 to 10 µM.

In the case of `COC(=O)c1cccc(N2CC(Oc3ccc(NC(=O)Nc4cccnc4)cc3)C2)c1-n1cccc1` [Example 34, methyl 3-(3-(4-(3-(pyridin-3-yl)ureido)phenoxy)azetidin-1-yl)-2-(1H-pyrrol-1-yl) benzoate], the EC50 is reported as < 1 µM.
